Results reported in patent US9220771B2, “Peptide for use in the treatment of breast cancer and/or bone metastases” (MERCK PATENT GMBH, priority 2010, dated 2015).

Experiments:
[1] = system: HER2-positive advanced BRCA; settings: in combination with capecitabine, 2nd line; cited from earlier work
[2] = system: MDA-MB-231 breast cancer bone metastases; assay: Histology / immunofluorescence of experimental breast cancer bone metastases; assay type: in vivo, nude rats (RNU strain); settings: after 4 weeks treatment with cilengitide; control rats 8.8 μm; p<0.01
Description: At the end of the observation period lower limbs of each animal are amputated and muscular tissue removed. Bones with surrounding soft tissue tumors are stored in 70% ethanol and embedded in a methylmethacrylat-based compound (Technovit® 9100 NEU, Heraeus Kulzer, Hanau, Germany) according to the instructions of the manufacturer. 5 μm-thick sections are cut (Microm HM340e microtome; Thermo Scientific, Waltham, Mass.), mounted on SuperFrost Plus microscope slides and dried overnight at 60° C. Additional freshly removed soft tissue tumors are embedded in optimum cutting temperature compound (OCT, TissueTec, Sakura, Japan) and stored at −80° C. […] Mean positive area fractions of SMA and collagen IV (in percent) as well as mean vessel diameters (in μm) are determined from 4 representative animals of each group analyzing 10 fields of view chosen randomly from each rat using Analysis Software (cell^F; Olympus Soft Imaging Solutions, Münster, Germany). […]
For light microscopical analysis, sections are stained with Mayer's hematoxylin (Carl Roth, Karlsruhe, Germany) and eosin (Merck, Darmstadt, Germany), mounted using Eukitt mounting medium (O. Kindler, Freiburg, Germany) and analyzed using a microscope (DM LB; Leica, Wetzlar, Germany) equipped with a digital camera (DFC 320; Leica, Wetzlar, Germany). […]

[3] = system: MDA-MB-231 breast cancer bone metastases; assay: DCE-MRI of experimental breast cancer bone metastases (amplitude A, exchange rate constant kep); assay type: in vivo, nude rats (RNU strain); settings: cilengitide 75 mg/kg
Description: (§1) T2-weighted imaging is performed using a turbo spin echo sequence (orientation axial, TR 3240 ms, TE 81 ms, matrix 152×256, FOV 90×53.4 mm^2, slice thickness 1.5 mm, 3 averages, scan time 3 min 40 s). For dynamic contrast-enhanced MRI, a saturation recovery turbo flash sequence through the largest diameter of the tumor (orientation axial, TR 373 ms, TE 1.86 ms, matrix 192×144, FOV 130×97.5 mm, slice thickness 5 mm, measurements 512, averages 1, scan time 6 min 55 s) is used. After 20 s baseline, 0.1 mmol/kg Gd-DTPA (Magnevist; Bayer Schering Pharma, Berlin, Germany) is intravenously infused for a time period of 10 s.
Unenhanced VCT images and MRI-acquired T2-weighted images are analyzed using the Medical Imaging Interaction Toolkit (MITK, Heidelberg, Germany) to determine volumes of osteolytic lesions and soft tissue components, respectively. DCE-MRI acquired data is analyzed using the Dynalab workstation (Mevis Research, Bremen, Germany) according to the two-compartment model of Brix to determine the parameters amplitude A and exchange rate constant kep, as described.^23, 30 Briefly, the injected contrast media is distributed in both compartments (intravascular space and extravascular, interstitial space). The accumulation of contrast agent in these compartments over time is characterized by the amplitude A (associated with blood volume), whereas the exchange of contrast agent between the intravascular space and the interstitial space is characterized by the exchange rate constant kep (associated with vessel permeability). For determination of the respective values of the amplitude A and kep of bone metastases in our study, a region of interest is placed around the soft tissue component on color maps for A and kep, respectively, using the Dynalab workstation (Mevis Research, Bremen, Germany).
For each animal, volumes of the osteolysis and soft tissue component, amplitude A and exchange rate constant kep are plotted versus time after tumor cell inoculation (due to technical reasons one animal of the control group can not be evaluated for the amplitude A and kep). Normalization of the data to the corresponding initial value at day 30 for each animal is performed and changes are expressed in percent. For statistical comparisons of data from non-invasive imaging and histological analysis, the respective values are compared between the control and treatment groups using the two-sided Wilcoxon-Test; p-values <0.05 are considered significant.

[4] = system: U251 human glioblastoma cells; assay: Rat orthotopic glioblastoma model, radiotherapy and cilengitide scheduling, survival; assay type: in vivo, NIH rnu nude rats; settings: t-4 and t-8 h groups, cilengitide 4 mg/kg + 25 Gy
Description: NIH rnu nude rats are anaesthetized, restrained, and injected intracerebrally 1 mm retro orbitally, 3 mm to the right of the bregma and at a depth of 2.5 mm with 5×10E5 U251 human glioblastoma cells suspended in 10 ul of culture medium, using a #2701 Hamilton syringe fitted with a 26 gauge needle, essentially as previously described (Engebraaten et al., 1999). After 14 days, cilengitide (4 mg/kg) is given as an intraperitoneal bolus in PBS, at various time (8 h, 4 h, 2 h, 1 h) prior to a single treatment with single, collimated, dorsal-ventral beam of 6 MV x-rays, so that 95-100% of the central axis dose of 25 Gy hit the tumor volume (Kim et al., 1999). Each of the 7 subsequent days the animals also received an identical i.p. bolus of cilengitide. The animals are maintained under ad libitum food and drink until they become moribund, or are sampled for tissue analysis (in the t-4 and t-8 h groups, where the animals are healthy past 230 days post tumor injection). A Kaplan-Meier survival curve is calculated and plotted (FIG. 7) from the raw data (Table 2). All animals in the RT monotherapy group died by 120 d.

[5] = system: MDA-MB468 human breast tumour cells; assay: Study 007: MDA-MB-468 orthotopic primary tumor growth; assay type: in vivo, female BALB/c nu/nu mice; settings: all three dosing groups (75, 150 or 300 mg/kg), daily s.c.; Vehicle Control higher than 350 mm^3
Description: MDA-MB468 human breast tumour cells were orthotopically inoculated into the third mammary fat pad of female BALB/c nu/nu mice. The mice were randomised into groups when the tumors reached a size of approximately 40 mm^3.
The mice in each group received treatment with either Vehicle Control (Placebo) or EMD 121974 (75, 150 or 300 mg/kg) by daily subcutaneous injection. Body weight and tumour volume measurements were made for all mice three times per week.

[6] = system: Patients With Newly Diagnosed Glioblastoma (GBM); assay: Phase I/IIa trial of Cilengitide and temozolomide with concomitant radiotherapy; assay type: in vivo, human
Description: Purpose: To evaluate safety, toxicity, and efficacy of the combination of the cyclic RGD pentapeptide Cilengitide (=cyclo-(Arg-Gly-Asp-DPhe-NMe-Val)), an inhibitor of integrins αvβ3 and αvβ5, in addition to standard temozolomide (TMZ) and radiotherapy (RT).
Patients and methods: Fifty-two pts (PS 0-1: 92%, 2: 8%; median age 57 yrs) after biopsy (n=9/17%) or tumor resection (n=43/83%) were treated with standard TMZ/RT (Stupp et al. NEJM 2005). In addition Cilengitide (500 mg i.v., 2×/week) was started one week before TMZ/RT and given throughout for the duration of chemotherapy or until progression. Primary endpoint was progression free survival rate at 6 months (target: 65%). Patients were followed with MRI every 2 months. Histopathologic diagnosis and MRI imaging were independently reviewed, MGMT promotor methylation status was assessed in 45 (86.5%) pts.

[7] = system: MDA-MB-231 breast cancer bone metastases; assay: Experimental breast cancer bone metastases in nude rats: volumes of osteolytic lesions and soft tissue components by VCT and MRI; assay type: in vivo, nude rats (RNU strain); settings: for mean relative volume of soft tissue components (STC), increase compared to initial value at day 30 / mean relative volume of osteolytic lesions (OL), increase compared to initial value at day 30: cilengitide 75 mg/kg i.p. five times per week from day 30; for mean relative volume of soft tissue components (STC), increase compared to initial value at day 30: MRI
Description: For this purpose, nude rats bearing established breast cancer bone metastases are treated with cilengitide, a small molecule inhibitor of αvβ3 and αvβ5 integrins (75 mg/kg, five days per week; n=12 rats) and compared to vehicle treated control rats (n=12). In a longitudinal study, conventional magnetic resonance imaging (MRI) and flat panel volumetric computed tomography (VCT) are used to assess the volume of the soft tissue tumor and osteolysis, respectively, and dynamic contrastenhanced (DCE-) MRI is performed to determine functional parameters of the tumor vasculature reflecting blood volume and blood vessel permeability.
Nude rats (RNU strain) are obtained from Harlan-Winkelmann GmbH (Borchen, Germany) at the age of six weeks and housed in a specific pathogen-free environment in a mini barrier system of the central animal facility. Animals are kept under controlled conditions (21±2° C. room temperature, 60% humidity, 12 h light-dark rhythm) and offered autoclaved food and water ad libitum. Sub-confluent MDAMB- 231 cells are harvested using 0.05% Trypsin-EDTA (Gibco®; Invitrogen, Karlsruhe, Germany) counted on a Neubauer's chamber and resuspended in RPMI-1640 to a final concentration of 10^5 cells in 200 μl. Rats are anesthetized using a mixture of nitrous oxide (1 l/min), oxygen (0.5 l/min) and isoflurane (1.5 vol. %). Arterial branches of the right hind leg are dissected and 10^5 cells injected into the superficial epigastric artery as described previously.^28 Bone metastases established and are observed exclusively in the femur, tibia and fibula of the right hind leg. 30 days after cancer cell transplantation, rats (n=24) are randomly divided into two groups, one group receiving the cyclic RGD-peptide inhibitor of αvβ3/αvβ5 integrins (cilengitide, EMD 121974^14, 17, 29; Merck, Darmstadt, Germany) intraperitoneally five times per week in isotonic saline (75 mg/kg; n=12 rats) and the other, sham-treated group, serving as a control (n=12 rats). The observation period of all animals is 55 days and no rat in the study dies ahead of schedule.
After the inoculation of cancer cells each rat is imaged at days 30, 35, 45 and 55 using (i) a flat-panel equipped volumetric computed tomograph (Volume CT, Siemens, Germany) and (ii) a 1.5T clinical magnetic resonance scanner (Symphony, Siemens, Erlangen, Germany) equipped with a home-built receive-transmit coil (cylindrical volume resonator with an inner diameter of 83 mm and a usable length of 120 mm). Prior to in vivo imaging with VCT and MRI, rats aree anesthetized with nitrous oxide, oxygen and isoflurane as described above.
VCT imaging is obtained using the following parameters: tube voltage 80 kV, tube current 50 mA, scan time 51 s, rotation speed 10 s, frames per second 120, matrix 512×512, and slice thickness 0.2 mm. Image reconstructions are performed using a modified FDK (Feldkamp Davis Kress) cone beam reconstruction algorithm (kernel H80a; Afra, Erlangen, Germany).
as §1
Unenhanced VCT images and MRI-acquired T2-weighted images are analyzed using the Medical Imaging Interaction Toolkit (MITK, Heidelberg, Germany) to determine volumes of osteolytic lesions and soft tissue components, respectively. […]

[8] = Cilengitide 500 mg i.v. 2x/week with TMZ/RT, of 52 patients

In the case of `CS(=O)(=O)CCNCc1ccc(-c2ccc3ncnc(Nc4ccc(OCc5cccc(F)c5)c(Cl)c4)c3c2)o1` [Lapatinib], the “improvement of median time to progression compared to capecitabine alone” value [1] is given as 4 months.
With `CC(C)[C@H]1C(=O)N[C@@H](CCCN=C(N)N)C(=O)NCC(=O)N[C@@H](CC(=O)O)C(=O)N[C@H](Cc2ccccc2)C(=O)N1C` [Cilengitide, cyclo-(Arg-Gly-Asp-DPhe-NMeVal)] the “mean vessel diameter in bone metastases” value [2] was 6.6 μm, the “DCE-MRI amplitude A (associated with blood volume), mean relative value” ([3]; day 35, p>0.05 vs control) was 97 % of initial value and the “DCE-MRI exchange rate constant kep (associated with vessel permeability), mean relative value” ([3]; day 35, p>0.05 vs control) was 69 % of initial value. For the same compound, the “DCE-MRI amplitude A (associated with blood volume), mean relative value” ([3]; day 45, p<0.05 vs control) was 102 % of initial value, the “DCE-MRI exchange rate constant kep (associated with vessel permeability), mean relative value” ([3]; day 45, p>0.05 vs control) was 88 % of initial value and the “DCE-MRI amplitude A (associated with blood volume), mean relative value” ([3]; day 55, p<0.05 vs control) was 93 % of initial value. The “DCE-MRI exchange rate constant kep (associated with vessel permeability), mean relative value” ([3]; day 55, p<0.05 vs control) was 72 % of initial value, the “time animals are healthy post tumor injection” value [4] was > 230 days and the “tumour volume on day 60” value [5] was “below 200 mm^3”. For the same compound, the “treatment related non-hematologic grade 3 toxicities” value ([6]; Cilengitide 500 mg i.v. 2x/week with TMZ/RT, 3/52 patients) was 5.7%, the “grade 3 constitutional symptoms (asthenia, fatigue, anorexia)” value [6, 8] was 3 n and the “grade 3 deep venous thrombosis and pulmonary embolism” value [6, 8] was 1 n. For the same compound, the “grade 3 elevated liver function tests” value [6, 8] was 1 n, the “tolerability of the combination” value ([6]; Cilengitide and TMZ/RT) was “well tolerated” and the “mean relative volume of soft tissue components (STC), increase compared to initial value at day 30” value ([7]; day 35) was 2.2 fold. The “mean relative volume of osteolytic lesions (OL), increase compared to initial value at day 30” value ([7]; day 35, VCT) was 1.5 fold, the “mean relative volume of soft tissue components (STC), increase compared to initial value at day 30” value ([7]; day 45, p<0.05 vs control) was 4.9 fold and the “mean relative volume of osteolytic lesions (OL), increase compared to initial value at day 30” value ([7]; day 45, VCT, p<0.05 vs control) was 2.4 fold. For the same compound, the “mean relative volume of soft tissue components (STC), increase compared to initial value at day 30” value ([7]; day 55, p<0.01 vs control) was 6.3 fold, the “mean relative volume of osteolytic lesions (OL), increase compared to initial value at day 30” value ([7]; day 55, VCT, p<0.01 vs control) was 3.5 fold and the “rats showing new bone formation in the osteolytic lesion” value ([7]; treatment group (three of 12 rats), cilengitide 75 mg/kg, VCT, not seen in controls) was 25%.
